Assay results from patent US20250186408A1, “TREATMENT OF PHARMACORESISTANT EPILEPSY” (Katholieke Universiteit Leuven, priority 2021, published 2025).
Like-named read-outs stand apart in the source and are kept apart here.

Experiments:
[1] = target: T1, EDNRA (Homo sapiens, UniProt P25101); assay: Calcium Flux EDNRA Antagonist; assay type: cell-based; details: for Emax: read-out: Max response; for IC50: read-out: RC50, result type IC50
T1 sequence (P25101 21-427): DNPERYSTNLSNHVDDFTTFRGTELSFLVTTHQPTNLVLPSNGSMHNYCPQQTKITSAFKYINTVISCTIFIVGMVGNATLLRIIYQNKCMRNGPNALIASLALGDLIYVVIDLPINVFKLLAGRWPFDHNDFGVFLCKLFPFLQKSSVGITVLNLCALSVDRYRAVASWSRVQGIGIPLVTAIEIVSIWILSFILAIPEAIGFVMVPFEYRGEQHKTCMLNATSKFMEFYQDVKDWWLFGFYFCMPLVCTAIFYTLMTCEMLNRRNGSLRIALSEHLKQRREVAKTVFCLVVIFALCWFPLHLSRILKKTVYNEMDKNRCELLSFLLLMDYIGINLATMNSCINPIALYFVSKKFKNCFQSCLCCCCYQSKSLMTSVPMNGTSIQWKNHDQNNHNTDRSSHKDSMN
Method: (§1) (≤0.2% DMSO concentration). Assays were performed in 1× dye loading buffer consisting of 1× Dye (DiscoverX, Calcium No Wash^PLUS kit, Catalog No. 90-0091), 1× Additive A and 2.5 mM Probenecid in HBSS/20 mM HEPES. Probenecid was prepared fresh. Prior to testing, media was aspirated from cells and replaced with 25 μL dye loading buffer. Cells were incubated for 45 min at 37° C. and then 20 min at RT. For agonist determination, 25 μL of 2× compound in HBSS/20 mM HEPES was added using a FLIPR Tetra (MDS). […] 25 μL of 2× sample was added and cells were incubated for 30 min at RT in the dark to equilibrate plate temperature. After incubation, antagonist determination was initiated by addition of 25 μL of 1× compound with 3×EC80 agonist using FLIPR. For both agonist and antagonist formats, activity was measure on a FLIPR Tetra (MDS). Calcium mobilization was monitored for 2 min with a 5 sec baseline read.
(§2) FLIPR read—Area under the curve, was calculated for the entire 2 min read.

[2] = target: ADRB2 (Homo sapiens, UniProt P07550); assay: cAMP ADRB2 Antagonist; assay type: cell-based; details: for Emax: read-out: Max response
Sequence of ADRB2 (P07550 whole entry): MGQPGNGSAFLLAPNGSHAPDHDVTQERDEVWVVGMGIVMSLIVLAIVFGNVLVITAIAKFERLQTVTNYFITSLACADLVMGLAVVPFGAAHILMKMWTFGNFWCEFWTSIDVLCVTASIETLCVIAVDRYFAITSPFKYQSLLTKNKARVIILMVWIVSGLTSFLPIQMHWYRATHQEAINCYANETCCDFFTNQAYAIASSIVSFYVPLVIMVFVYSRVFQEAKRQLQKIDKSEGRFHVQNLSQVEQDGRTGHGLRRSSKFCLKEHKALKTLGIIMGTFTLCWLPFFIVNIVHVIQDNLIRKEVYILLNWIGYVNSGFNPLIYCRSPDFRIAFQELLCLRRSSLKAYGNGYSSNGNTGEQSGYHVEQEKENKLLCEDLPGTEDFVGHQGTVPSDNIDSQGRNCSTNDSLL
Method: cAMP Hunter cell lines were expanded from freezer stocks. […] For Gi agonist determination, cells were incubated with sample in the presence of EC80 forskolin to induce response. For both conditions, media was aspirated from cells and replaced with 15 μL 2:1 HBSS/10 mM HEPES:cAMP XS+ Ab reagent. […] 5 μL of 4× sample was added to cells and incubated at 37° C. or room temperature (RT) for 30 or 60 min. Final assay vehicle concentration was 1%. […] Media was aspirated from cells and replaced with 10 μL 1:1 HBSS/HEPES:cAMP XS+ Ab reagent. […] For Gi coupled GPCRs, EC80 forskolin was included. […] Compound activity was analyzed using CBIS data analysis suite (ChemInnovation, CA).

[3] = target: ADORA2A (Homo sapiens, UniProt P29274); assay: Calcium Flux ADORA2A Agonist; assay type: cell-based; details: for Emax: read-out: Max response; for EC50: read-out: RC50, result type EC50
Sequence of ADORA2A (P29274 whole entry): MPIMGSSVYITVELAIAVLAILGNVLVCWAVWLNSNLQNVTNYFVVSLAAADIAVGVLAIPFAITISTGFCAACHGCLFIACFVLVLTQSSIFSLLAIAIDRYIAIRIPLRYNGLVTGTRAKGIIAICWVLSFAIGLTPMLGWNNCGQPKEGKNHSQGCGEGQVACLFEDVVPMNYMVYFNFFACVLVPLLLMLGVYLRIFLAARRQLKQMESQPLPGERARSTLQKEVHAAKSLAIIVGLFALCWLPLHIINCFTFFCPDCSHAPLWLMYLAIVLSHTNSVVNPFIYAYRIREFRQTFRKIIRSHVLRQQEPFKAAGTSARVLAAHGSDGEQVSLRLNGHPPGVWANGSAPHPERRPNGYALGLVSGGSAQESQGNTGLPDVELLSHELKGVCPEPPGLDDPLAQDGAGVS
Method: as §1, §2

[4] = target: HTR2B (Homo sapiens, UniProt P41595); assay: Calcium Flux HTR2B Antagonist; details: for Emax: read-out: Max response
Sequence of HTR2B (P41595 whole entry): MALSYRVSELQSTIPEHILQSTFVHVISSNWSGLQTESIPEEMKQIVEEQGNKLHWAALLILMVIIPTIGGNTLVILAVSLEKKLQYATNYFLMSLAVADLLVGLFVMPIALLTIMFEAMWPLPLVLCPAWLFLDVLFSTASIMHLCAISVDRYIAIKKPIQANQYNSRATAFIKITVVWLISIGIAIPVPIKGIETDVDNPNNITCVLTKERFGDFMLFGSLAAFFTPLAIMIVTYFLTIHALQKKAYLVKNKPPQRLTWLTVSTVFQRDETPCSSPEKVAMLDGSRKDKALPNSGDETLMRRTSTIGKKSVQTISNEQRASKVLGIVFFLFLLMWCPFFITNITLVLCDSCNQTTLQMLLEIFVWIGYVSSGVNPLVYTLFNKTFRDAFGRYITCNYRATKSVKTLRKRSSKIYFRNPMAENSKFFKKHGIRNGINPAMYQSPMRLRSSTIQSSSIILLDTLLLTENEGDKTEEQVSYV
Method: In vitro pharmacological profiling of compounds was done against 78 functional assays for 47 common off-targets (30) by Eurofins DiscoverX Corporation (Fremont, CA, USA) using their SAFETYscan E/IC50 ELECT service (Cat Ref 87-1003DR, Safety47 Panel Dose Response). […] Compounds were tested in a range of 10 concentrations, following a 3-fold serial dilution, starting from 10 μM. The assays were performed utilizing the PathHunter enzyme fragment complementation (EFC) technology, FLIPR®-based cellular screening assays, and KINOMEscan kinase binding assays.
Prior to testing, cells (10,000 cells/well) were expanded from freezer stocks and seeded into a total volume of 50 μL into black walled, clear-bottom, Poly-D-lysine coated 384-well microplates and incubated at 37° C. […] Assays were performed in 1× dye loading buffer consisting of 1× Dye (DiscoverX, Calcium No Wash^PLUS kit, Catalog No. 90-0091), 1× Additive A and 2.5 mM Probenecid in HBSS/20 mM HEPES. Probenecid was prepared fresh. Prior to testing, media was aspirated from cells and replaced with 25 μL dye loading buffer. Cells were incubated for 45 min at 37° C. and then 20 min at RT. For agonist determination, 25 μL of 2× compound in HBSS/20 mM HEPES was added using a FLIPR Tetra (MDS). For antagonist determination, cells were pre-incubated with sample followed by agonist challenge at the EC80 concentration. 25 μL of 2× sample was added and cells were incubated for 30 min at RT in the dark to equilibrate plate temperature. After incubation, antagonist determination was initiated by addition of 25 μL of 1× compound with 3×EC80 agonist using FLIPR. For both agonist and antagonist formats, activity was measure on a FLIPR Tetra (MDS). Calcium mobilization was monitored for 2 min with a 5 sec baseline read.
FLIPR read—Area under the curve, was calculated for the entire 2 min read. Compound activity was analysed using CBIS data analysis suite (ChemInnovation, CA).

[5] = target: T2, MAOA (Homo sapiens, UniProt P21397); assay: Enzymatic MAOA Inhibitor; assay type: biochemical; details: for Emax: read-out: Max response
T2 construct: purchased Sigma
T2 sequence (P21397 1-527): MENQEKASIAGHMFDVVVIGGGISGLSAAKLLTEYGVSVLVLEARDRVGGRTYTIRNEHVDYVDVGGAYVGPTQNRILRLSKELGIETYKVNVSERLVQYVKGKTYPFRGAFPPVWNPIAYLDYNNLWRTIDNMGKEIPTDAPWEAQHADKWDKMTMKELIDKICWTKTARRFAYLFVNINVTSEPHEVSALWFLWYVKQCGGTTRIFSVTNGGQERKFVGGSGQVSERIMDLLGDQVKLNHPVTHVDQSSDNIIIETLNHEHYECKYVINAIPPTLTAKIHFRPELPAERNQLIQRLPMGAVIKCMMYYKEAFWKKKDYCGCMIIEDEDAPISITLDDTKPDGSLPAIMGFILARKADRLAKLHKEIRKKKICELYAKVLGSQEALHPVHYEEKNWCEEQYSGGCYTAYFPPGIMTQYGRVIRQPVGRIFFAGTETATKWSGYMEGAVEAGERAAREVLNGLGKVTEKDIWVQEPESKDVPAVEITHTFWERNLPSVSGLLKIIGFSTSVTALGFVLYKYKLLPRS
Method: Enzyme preparations were sourced from various vendors-AChE (R&D Systems), COX1 and COX2 (BPS Bioscience), MAOA (Sigma), PDE3A and PDE4D2 (Signal Chem). AChE: enzyme and test compound were pre-incubated for 15 min at RT before substrate addition. Acetylthiocholine and DTNB were added and incubated at RT for 30 min. Signal was detected by measuring absorbance at 405 nm. COX1 and COX2: enzyme stocks were diluted in assay buffer (40 mM Tris-HCl, 1×PBS, 0.5 mM Phenol, 0.01% Tween 20 and 10 nM Hematin) and allowed to equilibrate with compounds at RT for 30 min (binding incubation). Arachidonic acid (1.7 μM) and Ampliflu Red (2.5 μM) were prepared and dispended into a reaction plate. Plates were read immediately on a fluorimeter with the emission detection at 590 nm and excitation wavelength 544 nm. MAOA: enzyme and test compound were pre-incubated for 15 min at 37° C. before substrate addition. The reaction was initiated by addition of kynuramine and incubated at 37° C. for 30 min. The reaction was terminated by addition of NaOH. The amount of 4-hydroquinoline formed was determined through spectrofluorometric readout with the emission detection at 380 nm and excitation wavelength 310 nm. PDE3A and PDE4D2: enzyme and test compound were pre-incubated for 15 min at RT before substrate addition. cAMP substrate (at a concentration equal to EC80) was added and incubated at RT for 30 min. Enzyme reaction was terminated by addition of 9 mM IBMX. Signal was detected using the HitHunter® cAMP detection kit. Microplates were transferred to a PerkinElmer Envision™ instrument and read out as described for each assay. […] For enzyme activity assays, percentage inhibition was calculated using the following equation: […]

SMILES | Emax ([1]; Calcium Flux EDNRA Antagonist) [%] | IC50 ([1]; Calcium Flux EDNRA Antagonist) [µM] | Emax ([2]; cAMP ADRB2 Antagonist) [%] | IC50 ([2]; cAMP ADRB2 Antagonist, read-out: RC50, result type IC50) [µM] | Emax ([3]; Calcium Flux ADORA2A Agonist) [%] | EC50 ([3]; Calcium Flux ADORA2A Agonist) [µM] | IC50 [4] [µM] | Emax [4] [%] | Emax ([5]; Enzymatic MAOA Inhibitor) [%] | IC50 ([5]; Enzymatic MAOA Inhibitor, read-out: RC50, result type IC50) [µM] | Emax [1] [%] | IC50 [2] [µM] | Emax [2] [%] | Emax [3] [%] | IC50 [5] [µM] | Emax [5] [%]
Clc1cccc(C#Cc2n[nH]c3ncccc23)c1 [Compound 10.1, 3-((3-chlorophenyl)ethynyl)-1H-pyrazolo[3,4-b]pyridine] | 0 | > 10 | 39.9 | > 10 | 3 | > 10 | > 10 | 8.8 | 12.4 | > 10 | – | – | – | – | – | –
CC(C)(C)c1ccc(C#CC(O)c2ccccc2)cc1 (racemic) [Compound 3.3, rac-3-(4-(tert-butyl)phenyl)-1-phenylprop-2-yn-1-ol] | – | > 10 | – | – | – | > 10 | > 10 | 0 | – | – | 0 | > 10 | 0 | 1.8 | > 10 | 4.4
